For data set [1], the target named is T1, SENP-1 (Rattus norvegicus, UniProt A0A0G2JVG1).
T1 construct: endogenous in cells; host or cells: N27p (N27 parental) rat dopaminergic cells
T1 sequence (A0A0G2JVG1 1-672): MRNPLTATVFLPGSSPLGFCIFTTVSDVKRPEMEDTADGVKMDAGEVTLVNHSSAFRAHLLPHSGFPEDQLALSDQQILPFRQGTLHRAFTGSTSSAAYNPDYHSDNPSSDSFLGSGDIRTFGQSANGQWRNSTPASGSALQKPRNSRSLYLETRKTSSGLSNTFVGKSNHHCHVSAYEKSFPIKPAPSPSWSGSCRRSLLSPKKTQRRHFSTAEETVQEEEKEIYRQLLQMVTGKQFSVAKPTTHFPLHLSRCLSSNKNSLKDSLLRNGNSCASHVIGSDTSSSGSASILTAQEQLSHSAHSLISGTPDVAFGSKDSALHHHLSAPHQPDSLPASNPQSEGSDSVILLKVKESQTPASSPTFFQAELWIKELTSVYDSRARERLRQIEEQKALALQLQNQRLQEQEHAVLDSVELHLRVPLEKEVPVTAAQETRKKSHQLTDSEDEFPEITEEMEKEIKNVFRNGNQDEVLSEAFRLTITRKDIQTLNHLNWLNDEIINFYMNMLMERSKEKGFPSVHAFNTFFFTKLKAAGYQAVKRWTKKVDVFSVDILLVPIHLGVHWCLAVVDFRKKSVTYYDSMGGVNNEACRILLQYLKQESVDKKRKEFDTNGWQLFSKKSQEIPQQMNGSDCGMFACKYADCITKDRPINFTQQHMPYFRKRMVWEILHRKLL
As to the kind of experiment: Western blot of SENP-1 level in PFF-exposed N27p cells. It counts as cell-based. The settings on record: PFF exposure, compared with PFF only. The text has this: (§1) A) The RNA interference suppressed the expression level of SENP-1, which enhanced SUMO-1 level. […] One-Way ANOVA, Dunnett's test was applied for statistical analysis in comparison with PFF only (#). *: p<0.05, **: p<0.01, p<0.001 and n.s.: not significant.
In general terms: A western blot detects proteins with antibodies after separation by electrophoresis.

The test system of data set [2] is SUMO-1. As to the kind of experiment: Western blot of SUMO-1 level in PFF-exposed N27p cells. It counts as cell-based, rat. The following applies: PFF exposure, compared with PFF only.
Text: as §1

Data set [3] concerns PFF-injected old mice. Kind of data set: Grooming in PFF-injected mice. The settings on record: 10 and/or 50 mg/kg oral, vs PFF only. In kind it is in vivo, mouse. Here is the method:
(§2) A mouse model of Parkinson's disease is C57BL/6 male or female mice (50% each) injected with 5 μg of mouse PFF at 12 months old, followed by a treatment below for 6-7 weeks: • 1) without PFF injection, followed by vehicle (control, n=7); • 2) PFF injection, followed by vehicle (PFF only: control, n=8); • 3) PFF injection, followed by daily 10 mg/kg Momordin gavage (n=7-8); • 4) PFF injection, followed by daily 50 mg/kg Momordin gavage (n=7-8).
Grooming. Individual pictures of each animal were taken over 3 days and analyzed for grooming capabilities. Additional data were collected over 6 weeks during the gavaging period for PFF-injected mice to monitor whether the mice in all groups performed grooming activities uniformly. The points were averaged at the end of the assessment after the mice were euthanized. The coat conditions of each animal were assessed to correlate motivation and activity levels for each animal. […] The grooming pictures were also analyzed by blinded raters and given a point out of 10, with 1 being a poor/dull coat and 10 being a shiny and healthy-looking coat.

The target in data set [4] is T2, SENP-1 on α-synuclein (Mus musculus, UniProt P59110).
T2 construct: from tissue; host or cells: mouse brain: midbrain and striatum, α-synuclein immunoprecipitates
T2 sequence (P59110 1-640): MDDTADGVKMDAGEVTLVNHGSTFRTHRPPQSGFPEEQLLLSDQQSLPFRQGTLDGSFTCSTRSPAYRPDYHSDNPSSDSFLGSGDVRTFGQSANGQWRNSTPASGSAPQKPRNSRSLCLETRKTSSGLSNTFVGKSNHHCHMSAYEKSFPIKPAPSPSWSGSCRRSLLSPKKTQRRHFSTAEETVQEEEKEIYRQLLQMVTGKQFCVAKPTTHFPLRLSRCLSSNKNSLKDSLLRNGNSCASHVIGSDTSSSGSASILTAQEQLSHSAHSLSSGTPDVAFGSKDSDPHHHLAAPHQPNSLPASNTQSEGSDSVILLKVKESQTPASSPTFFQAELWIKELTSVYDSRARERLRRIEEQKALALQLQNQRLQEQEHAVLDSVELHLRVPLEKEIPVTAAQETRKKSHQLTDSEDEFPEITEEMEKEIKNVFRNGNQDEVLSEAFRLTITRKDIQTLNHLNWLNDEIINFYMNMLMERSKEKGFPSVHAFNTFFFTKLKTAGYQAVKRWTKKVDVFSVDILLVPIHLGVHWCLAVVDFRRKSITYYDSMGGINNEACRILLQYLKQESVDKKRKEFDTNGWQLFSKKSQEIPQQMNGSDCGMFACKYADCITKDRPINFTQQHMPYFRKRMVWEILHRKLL
Kind of data set: Western blot of SENP-1 on α-synuclein in α-synuclein IP tissue samples. It counts as in vivo. The following applies: PFF-injected mice, vs PFF only. Here is the method: A) In Western blots, Momordin reversed the toxicity from PFF injection in reducing phospho-α-synuclein and SENP-1 on α-synuclein in the MB and STR. […] A pathological marker, phosphorylated α-synuclein was increased by PFF injection, which was reversed by Momordin treatment in the MB (F) and the STR (G).
as §2

Data set [5] concerns nigrostriatal neurons. As to the kind of experiment: ROS in nigrostriatal neurons of PFF-injected mice. It counts as in vivo. The settings on record: PFF injection, mouse brains.
A short description of data set [6]: Passage of the BBB in mice. In kind it is in vivo, mouse. The following applies: 10 or 50 mg/kg.

SMILES strings stand for the structures.

For the compound `CC1(C)CC[C@]2(C(=O)O)CC[C@]3(C)C(=CC[C@@H]4[C@@]5(C)CC[C@H](O[C@@H]6O[C@H](C(=O)O)[C@@H](O)[C@H](O[C@@H]7OC[C@@H](O)[C@H](O)[C@H]7O)[C@H]6O)C(C)(C)[C@@H]5CC[C@]43C)[C@@H]2C1` [Momordin lc], the “level of SENP-1 (Western blot)” value in data set [1] was “reduced the level of SENP-1”. For the same compound, in data set [2], the “level of SUMO-1 (Western blot)” value was “increased level of SUMO-1”. Moreover, the grooming result in data set [3] is listed as “improves”. Moreover, the “PFF-induced SENP-1 on α-synuclein in the MB (α-synuclein IP)” value in data set [4] (midbrain) is given as “reduced”. In addition, the “PFF-induced SENP-1 on α-synuclein in the STR (α-synuclein IP)” value in data set [4] (striatum) is “reduced”. For the same compound, the “level of ROS in nigrostriatal neurons” value in data set [5] was “alleviated the level of ROS”. For the same compound, in data set [6], the “passage of the BBB” value is recorded as “effectively pass the BBB”.
